Read-outs that look alike come from different tables or passages of the source. Numbered stars: 1 amine (or outer) side, 2 acyl side, 3 side chain; on linkers, the order of the positions; unused ones are H or OH. Side chains are listed from the residue outwards. Peptide text beside a SMILES is read from it. * marks the point of attachment. C18 diacid = O=C(O)CCCCCCCCCCCCCCCCC(=O)*; γGlu = O=C(O)[C@H](CCC(=O)[*:2])N[*:1]; AEEA = NCCOCCOCC(=O)O
Legend:
[1] = Assay (II) PK i.v. minipig, in vivo half-life; design: species or system Göttingen mini-pigs; conditions: male, Göttingen, iv
Procedure, shortened: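 Male Göttingen mini-pigs (18–22 kg, n=5) received 6 nmol/kg i.v. via central catheter, formulated in 50 mM K2HPO4, 0.05% tween 80, pH 8.0. EDTA plasma sampled pre-dose to 240 h, quantified by TFC/LC/MS/MS (MRM, range 1-2000 nmol/l); half-life from non-compartmental analysis per animal.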

[2] = Assay (X) determination of effect on body weight in mice on high fat diet; assay type: in vivo, C57B16J mice; conditions: male C57 DIO mice, s.c., 0.3 μmol/kg once daily; FIG. 1
Source text: Additional assays useful to the invention comprise those that can determine the effect of PP peptides on body weight and/or body composition. An exemplary assay is the following which involves utilization of a diet induced obese male […] mouse model for metabolic disease: […] (Taconic, Denmark) on regular diurnal rhythm and with access to a high fat diet (D12492, Research Diet, USA) are used. The mice are weighed on a weekly basis. Mice are received at age 5 weeks and put on high fat diet and housed at 24 degree Celsius in normal daily rhythm. Mice are group housed 10 per cage during an obesity induction period of 14 weeks. Two weeks before study start mice are single housed (two mice per cage with a dividing wall between). […] Body weight for all mice is recorded daily in combination with dosing. […] Data are analysed in Graph Pad Prism. Change of body weight from baseline in male C57 DIO mice (mean±SEM, n=10) after s.c. administration of compound AF (0.03 μmol/kg once daily or 0.1 μmol/kg every other day) or the reference compound human PP(2-36) (0.3 μmol/kg, once daily) was determined using Assay (X). […] Change of body weight (mean±SEM, n=10-12) and change of body weight from baseline (mean±SEM, n=10) in male […] mice on a high fat diet after administration of vehicle, compound BN (1 μmol/kg/day, s.c.) or reference compound 1 (500 nmol/kg/day, pump) was determined using Assay (X).

[3] = human, in vivo; cited from earlier work
[4] = minipig, Half-life minipig, Assay (II)

SMILES	half-life [1, 4]	other results
CC[C@H](C)[C@H](NC(=O)[C@H](Cc1ccc(O)cc1)NC(=O)[C@H](CCCNC(=N)N)NC(=O)[C@H](CCCNC(=N)N)NC(=O)[C@H](CC(C)C)NC(=O)[C@H](CC(=O)O)NC(=O)[C@H](C)NC(=O)[C@H](C)NC(=O)[C@H](Cc1ccc(O)cc1)NC(=O)[C@H](CCC(N)=O)NC(=O)[C@H](C)NC(=O)[C@H](CCSC)NC(=O)[C@H](CCC(N)=O)NC(=O)[C@H](CCC(=O)O)NC(=O)[C@H](CCCCNC(=O)COCCOCCNC(=O)COCCOCCNC(=O)CC[C@H](NC(=O)CCCCCCCCCCCCCCCCC(=O)O)C(=O)O)NC(=O)[C@@H](NC(=O)[C@H](C)NC(=O)[C@H](CC(N)=O)NC(=O)[C@H](CC(=O)O)NC(=O)CNC(=O)[C@@H]1CCCN1C(=O)[C@H](Cc1ccc(O)cc1)NC(=O)[C@@H](NC(=O)[C@@H]1CCCN1C(=O)[C@H](CCC(=O)O)NC(=O)[C@H](CC(C)C)NC(=O)[C@@H]1CCCN1)C(C)C)[C@@H](C)O)C(=O)N[C@@H](CC(N)=O)C(=O)N[C@@H](CCSC)C(=O)N[C@@H](CC(C)C)C(=O)N[C@H](C(=O)N[C@@H](CCCNC(=N)N)C(=O)N1CCC[C@H]1C(=O)N[C@@H](CCCNC(=N)N)C(=O)N[C@@H](Cc1ccc(O)cc1)C(N)=O)[C@@H](C)O [Compound T] (H-PLEPVYPGDNATK([AEEA-AEEA-γGlu-C18 diacid])EQMAQYAADLRRYINMLTRPRY-NH2; N-terminus and C-terminus assumed)	45 h	
CC[C@H](C)[C@H](NC(=O)[C@H](Cc1ccc(O)cc1)NC(=O)[C@H](CCCNC(=N)N)NC(=O)[C@H](CCCNC(=N)N)NC(=O)[C@H](CC(C)C)NC(=O)[C@H](CC(=O)O)NC(=O)[C@H](C)NC(=O)[C@H](C)NC(=O)[C@H](Cc1ccc(O)cc1)NC(=O)[C@H](CCC(N)=O)NC(=O)[C@H](C)NC(=O)[C@H](CCSC)NC(=O)[C@H](CCC(N)=O)NC(=O)[C@H](CCC(=O)O)NC(=O)[C@@H]1CCCN1C(=O)[C@@H](NC(=O)[C@H](C)NC(=O)[C@H](CCCCNC(=O)COCCOCCNC(=O)COCCOCCNC(=O)CC[C@H](NC(=O)CCCCCCCCCCCCCCCCC(=O)O)C(=O)O)NC(=O)[C@H](CC(=O)O)NC(=O)CNC(=O)[C@@H]1CCCN1C(=O)[C@H](Cc1ccc(O)cc1)NC(=O)[C@@H](NC(=O)[C@@H]1CCCN1C(=O)[C@H](CCC(=O)O)NC(=O)[C@H](CC(C)C)NC(=O)[C@@H]1CCCN1)C(C)C)[C@@H](C)O)C(=O)N[C@@H](CC(N)=O)C(=O)N[C@@H](CCSC)C(=O)N[C@@H](CC(C)C)C(=O)N[C@H](C(=O)N[C@@H](CCCNC(=N)N)C(=O)N1CCC[C@H]1C(=O)N[C@@H](CCCNC(=N)N)C(=O)N[C@@H](Cc1ccc(O)cc1)C(N)=O)[C@@H](C)O [Compound W]		half-life ([1]; Table 2, PP(2-36) based, crude sample, i.v. minipig, read-out: Half-life minipig, Assay (II) (converted)): 29 h
CC[C@H](C)[C@H](NC(=O)[C@H](Cc1ccc(O)cc1)NC(=O)[C@H](CCCNC(=N)N)NC(=O)[C@H](CCCNC(=N)N)NC(=O)[C@H](CC(C)C)NC(=O)[C@H](CC(=O)O)NC(=O)[C@H](C)NC(=O)[C@H](C)NC(=O)[C@H](Cc1ccc(O)cc1)NC(=O)[C@H](CCC(N)=O)NC(=O)[C@H](C)NC(=O)[C@H](CCSC)NC(=O)[C@H](CCC(N)=O)NC(=O)[C@H](CCC(=O)O)NC(=O)[C@@H]1CCCN1C(=O)[C@@H](NC(=O)[C@H](C)NC(=O)[C@H](CC(N)=O)NC(=O)[C@H](CC(=O)O)NC(=O)CNC(=O)[C@@H]1CCCN1C(=O)[C@H](Cc1ccc(O)cc1)NC(=O)[C@@H](NC(=O)[C@@H]1CCCN1C(=O)[C@H](CCC(=O)O)NC(=O)[C@H](CC(C)C)NC(=O)[C@@H]1CCCN1C(=O)[C@H](C)N)C(C)C)[C@@H](C)O)C(=O)N[C@@H](CC(N)=O)C(=O)N[C@@H](CCSC)C(=O)N[C@@H](CC(C)C)C(=O)N[C@H](C(=O)N[C@@H](CCCNC(=N)N)C(=O)N1CCC[C@H]1C(=O)N[C@@H](CCCNC(=N)N)C(=O)N[C@@H](Cc1ccc(O)cc1)C(N)=O)[C@@H](C)O [PP(2-36)]		Change of body weight from baseline [2]: reduction in body weight
CC[C@H](C)[C@H](NC(=O)[C@H](Cc1ccc(O)cc1)NC(=O)[C@H](CCCNC(=N)N)NC(=O)[C@H](CCCNC(=N)N)NC(=O)[C@H](CC(C)C)NC(=O)[C@H](CC(=O)O)NC(=O)[C@H](C)NC(=O)[C@H](C)NC(=O)[C@H](Cc1ccc(O)cc1)NC(=O)[C@H](CCC(N)=O)NC(=O)[C@H](C)NC(=O)[C@H](CCSC)NC(=O)[C@H](CCC(N)=O)NC(=O)[C@H](CCC(=O)O)NC(=O)[C@@H]1CCCN1C(=O)[C@@H](NC(=O)[C@H](C)NC(=O)[C@H](CC(N)=O)NC(=O)[C@H](CC(=O)O)NC(=O)CNC(=O)[C@@H]1CCCN1C(=O)[C@H](Cc1ccc(O)cc1)NC(=O)[C@@H](NC(=O)[C@@H]1CCCN1C(=O)[C@H](CCC(=O)O)NC(=O)[C@H](CC(C)C)NC(=O)[C@@H]1CCCN1C(=O)[C@H](C)N)C(C)C)[C@@H](C)O)C(=O)N[C@@H](CC(N)=O)C(=O)N[C@@H](CCSC)C(=O)N[C@@H](CC(C)C)C(=O)N[C@H](C(=O)N[C@@H](CCCNC(=N)N)C(=O)N1CCC[C@H]1C(=O)N[C@@H](CCCNC(=N)N)C(=O)N[C@@H](Cc1ccc(O)cc1)C(N)=O)[C@@H](C)O [PP]		half-life [3]: approximately 10 minutes

Now from value to compound, other results behind:

half-life [1, 4]	SMILES	other results
23 h	CC[C@H](C)[C@H](NC(=O)[C@H](Cc1ccc(O)cc1)NC(=O)[C@H](CCCNC(=N)N)NC(=O)[C@H](CCCNC(=N)N)NC(=O)[C@H](CC(C)C)NC(=O)[C@H](CC(=O)O)NC(=O)[C@H](C)NC(=O)[C@H](C)NC(=O)[C@H](Cc1ccc(O)cc1)NC(=O)[C@H](CCC(N)=O)NC(=O)[C@H](C)NC(=O)[C@H](CCSC)NC(=O)[C@H](CCC(N)=O)NC(=O)[C@H](CCC(=O)O)NC(=O)[C@@H]1CCCN1C(=O)[C@H](CCCCNC(=O)COCCOCCNC(=O)COCCOCCNC(=O)CC[C@H](NC(=O)CCCCCCCCCCCCCCCCC(=O)O)C(=O)O)NC(=O)[C@H](C)NC(=O)[C@H](CC(N)=O)NC(=O)[C@H](CC(=O)O)NC(=O)CNC(=O)[C@@H]1CCCN1C(=O)[C@H](Cc1ccc(O)cc1)NC(=O)[C@@H](NC(=O)[C@@H]1CCCN1C(=O)[C@H](CCC(=O)O)NC(=O)[C@H](CC(C)C)NC(=O)[C@@H]1CCCN1)C(C)C)C(=O)N[C@@H](CC(N)=O)C(=O)N[C@@H](CCSC)C(=O)N[C@@H](CC(C)C)C(=O)N[C@H](C(=O)N[C@@H](CCCNC(=N)N)C(=O)N1CCC[C@H]1C(=O)N[C@@H](CCCNC(=N)N)C(=O)N[C@@H](Cc1ccc(O)cc1)C(N)=O)[C@@H](C)O [Compound U] (H-PLEPVYPGDNAK([AEEA-AEEA-γGlu-C18 diacid])PEQMAQYAADLRRYINMLTRPRY-NH2; N-terminus and C-terminus assumed)	
36 h	CC[C@H](C)[C@H](NC(=O)[C@H](Cc1ccc(O)cc1)NC(=O)[C@H](CCCNC(=N)N)NC(=O)[C@H](CCCNC(=N)N)NC(=O)[C@H](CC(C)C)NC(=O)[C@H](CC(=O)O)NC(=O)[C@H](C)NC(=O)[C@H](C)NC(=O)[C@H](Cc1ccc(O)cc1)NC(=O)[C@H](CCC(N)=O)NC(=O)[C@H](C)NC(=O)[C@H](CCSC)NC(=O)[C@H](CCC(N)=O)NC(=O)[C@H](CCC(=O)O)NC(=O)[C@@H]1CCCN1C(=O)[C@@H](NC(=O)[C@H](CCCCNC(=O)COCCOCCNC(=O)COCCOCCNC(=O)CC[C@H](NC(=O)CCCCCCCCCCCCCCCCC(=O)O)C(=O)O)NC(=O)[C@H](CC(N)=O)NC(=O)[C@H](CC(=O)O)NC(=O)CNC(=O)[C@@H]1CCCN1C(=O)[C@H](Cc1ccc(O)cc1)NC(=O)[C@@H](NC(=O)[C@@H]1CCCN1C(=O)[C@H](CCC(=O)O)NC(=O)[C@H](CC(C)C)NC(=O)[C@@H]1CCCN1)C(C)C)[C@@H](C)O)C(=O)N[C@@H](CC(N)=O)C(=O)N[C@@H](CCSC)C(=O)N[C@@H](CC(C)C)C(=O)N[C@H](C(=O)N[C@@H](CCCNC(=N)N)C(=O)N1CCC[C@H]1C(=O)N[C@@H](CCCNC(=N)N)C(=O)N[C@@H](Cc1ccc(O)cc1)C(N)=O)[C@@H](C)O [Compound V]	
47 h	CC[C@H](C)[C@H](NC(=O)[C@H](Cc1ccc(O)cc1)NC(=O)[C@H](CCCNC(=N)N)NC(=O)[C@H](CCCNC(=N)N)NC(=O)[C@H](CC(C)C)NC(=O)[C@H](CC(=O)O)NC(=O)[C@H](C)NC(=O)[C@H](C)NC(=O)[C@H](Cc1ccc(O)cc1)NC(=O)[C@H](CCC(N)=O)NC(=O)[C@H](C)NC(=O)[C@H](CCSC)NC(=O)[C@H](CCC(N)=O)NC(=O)[C@H](CCC(=O)O)NC(=O)[C@@H]1CCCN1C(=O)[C@@H](NC(=O)[C@H](C)NC(=O)[C@H](CC(N)=O)NC(=O)[C@H](CCCCNC(=O)COCCOCCNC(=O)COCCOCCNC(=O)CC[C@H](NC(=O)CCCCCCCCCCCCCCCCC(=O)O)C(=O)O)NC(=O)CNC(=O)[C@@H]1CCCN1C(=O)[C@H](Cc1ccc(O)cc1)NC(=O)[C@@H](NC(=O)[C@@H]1CCCN1C(=O)[C@H](CCC(=O)O)NC(=O)[C@H](CC(C)C)NC(=O)[C@@H]1CCCN1)C(C)C)[C@@H](C)O)C(=O)N[C@@H](CC(N)=O)C(=O)N[C@@H](CCSC)C(=O)N[C@@H](CC(C)C)C(=O)N[C@H](C(=O)N[C@@H](CCCNC(=N)N)C(=O)N1CCC[C@H]1C(=O)N[C@@H](CCCNC(=N)N)C(=O)N[C@@H](Cc1ccc(O)cc1)C(N)=O)[C@@H](C)O [Compound X]	
